Reference: ChEMBL document CHEMBL5036330, “Discovery of 8,9-seco-ent-Kaurane Diterpenoids as Potential Leads for the Treatment of Triple-Negative Breast Cancer” (J Med Chem, 2021)
The source made the active and inactive calls. No cut-off for these calls is given here.

Key:
[1] = tested on: MDA-MB-468; assay: Effect on PI3K expression in human MDA-MB-468 cells measured at 1 to 5 uM after 24 hrs by Western blot analysis; assay type: functional, cell-based; settings: dose 1-5 µM
[2] = tested on: MDA-MB-231; assay: Induction of mitochondrial depolarization in human MDA-MB-231 cells assessed as aggregates at 5 uM in dark by JC10 staining based fluorescence microscopy (reference value: 94.4%); assay type: functional
[3] = tested on: MDA-MB-231; assay: Induction of cell cycle arrest in human MDA-MB-231 cells assessed as accumulation of cells at G2 phase at 5 uM measured after 24 hrs by flow cytometry (reference value: 20.2%); assay type: functional
[4] = tested on: MDA-MB-231; assay: Antiinvasive activity against human MDA-MB-231 cells measured upto 72 hrs by transwell invasion assay relative to control; assay type: functional, cell-based; settings: dose 0.1-0.2 µM, time hrs <=72
[5] = tested on: MDA-MB-231; assay: Antitumor activity against human MDA-MB-231 cells xenografted in NOD/SCID mouse assessed as increase in LC3B expression in tumor tissue at 5 to 10 mg/kg, ip treated for 33 days by immunohistochemical analysis; assay type: functional, organism-based; settings: dose 5-10 mg/kg, time 33.0 day
[6] = Selectivity index, ratio of IC50 for human LO2 cells to IC50 for human MBA-MB-231 cells; assay type: functional
[7] = tested on: MDA-MB-468; assay: Induction of cell cycle arrest in human MDA-MB-468 cells assessed as accumulation of cells at S phase at 1 uM measured after 24 hrs by flow cytometry (reference value: 46.9%); assay type: functional
[8] = tested on: MDA-MB-231; assay: Induction of mitochondrial depolarization in human MDA-MB-231 cells assessed as aggregates at 1 uM in dark by JC10 staining based fluorescence microscopy (reference value: 94.4%); assay type: functional
[9] = tested on: MDA-MB-468; assay: Induction of autophagy in human MDA-MB-468 cells assessed as increase in ATG7 expression at 1 to 5 uM incubated for 24 hrs by Western blot analysis; assay type: functional, cell-based; settings: dose 1-5 µM
[10] = tested on: MDA-MB-231; assay: Induction of autophagy in human MDA-MB-231 cells assessed as increase in ATG5 expression at 1 to 5 uM incubated for 24 hrs by Western blot analysis; assay type: functional, cell-based; settings: dose 1-5 µM
[11] = tested on: HEK293; assay: Cytotoxicity against HEK-293 cells assessed as reduction in cell viability incubated for 96 hrs by MTT method; assay type: cell-based; settings: Homo sapiens, HEK293, 96 h
[12] = tested on: MDA-MB-231; assay: Antiinvasive activity against in human MDA-MB-231 cells assessed as reduction in MMP2 expression measured upto 72 hrs by Western blot analysis; assay type: functional, cell-based; settings: dose 0.1-0.2 µM, time hrs <=72
[13] = molecular target: Serine/threonine-protein kinase mTOR (Homo sapiens) (UniProt P42345); assay: Inhibition of mTOR phosphorylation in human MDA-MB-468 cells measured after 24 hrs by Western blot analysis; assay type: cell-based; settings: dose 1-5 µM
[14] = tested on: MDA-MB-468; assay: Antiproliferative activity against human MDA-MB-468 cells assessed as supression of long term proliferative capacity measured for 2 weeks by Colony formation assay; assay type: functional, cell-based; settings: dose 0.05-0.2 µM
[15] = tested on: MDA-MB-468; assay: Induction of cell cycle arrest in human MDA-MB-468 cells assessed as accumulation of cells at G2 phase at 1 uM measured after 24 hrs by flow cytometry (reference value: 26.5%); assay type: functional
[16] = tested on: MDA-MB-468; assay: Induction of apoptosis in human MDA-MB-468 cells assessed as early apoptotic cells at 2 uM measured after 24 hrs by Annexin V/Propidium iodide stain based Flow cytometry (reference value: 7.98%); assay type: functional
[17] = tested on: MDA-MB-231; assay: Induction of cell cycle arrest in human MDA-MB-231 cells assessed as accumulation of cells at S phase at 5 uM measured after 24 hrs by flow cytometry (reference value: 32.2%); assay type: functional
[18] = tested on: MDA-MB-231; assay: Induction of cell cycle arrest in human MDA-MB-231 cells assessed as accumulation of cells at S phase at 2 uM measured after 24 hrs by flow cytometry (reference value: 32.2%); assay type: functional
[19] = tested on: MDA-MB-468; assay: Anticancer activity in human MDA-MB-468 cells xenografted mouse model assessed as reduction in tumor volume at 10 mg/kg, ip treated for 33 days; assay type: functional; settings: MDA-MB-468, ip, 792 h, time 33 day
[20] = tested on: MDA-MB-231; assay: Induction of mitochondrial depolarization in human MDA-MB-231 cells assessed as monomers at 2 uM in dark by JC10 staining based fluorescence microscopy (reference value: 5.6%); assay type: functional
[21] = tested on: MDA-MB-231; assay: Antitumor activity against human MDA-MB-231 cells xenografted in NOD/SCID mouse assessed as increase in TUNEL expression in tumor tissue at 5 to 10 mg/kg, ip treated for 33 days by immunohistochemical analysis; assay type: functional, organism-based; settings: dose 5-10 mg/kg, time 33.0 day
[22] = tested on: MDA-MB-231; assay: Induction of cell cycle arrest in human MDA-MB-231 cells assessed as accumulation of cells at G1 phase at 1 uM measured after 24 hrs by flow cytometry (reference value: 47.7%); assay type: functional
[23] = tested on: MDA-MB-468; assay: Cytotoxicity against human MDA-MB-468 cells assessed as reduction in cell viability incubated for 96 hrs by MTT method; assay type: functional, cell-based; settings: MDA-MB-468, 96 h
[24] = Toxicity in NOD/SCID mouse assessed as change in body weight at 5 to 10 mg/kg, ip treated for 33 days; assay type: organism-based; settings: in vivo, 792 h, dose 5-10 mg/kg, time 33 day
[25] = Toxicity in NOD/SCID mouse assessed as cytotoxicity in kidney at 10 mg/kg, ip treated for 33 days by H&E staining analysis; assay type: organism-based; settings: in vivo, 792 h, time 33 day
[26] = tested on: MDA-MB-468; assay: Induction of cell cycle arrest in human MDA-MB-468 cells assessed as accumulation of cells at S phase at 2 uM measured after 24 hrs by flow cytometry (reference value: 46.9%); assay type: functional
[27] = tested on: MDA-MB-468; assay: Induction of cell cycle arrest in human MDA-MB-468 cells assessed as accumulation of cells at G1 phase at 5 uM measured after 24 hrs by flow cytometry (reference value: 26.6%); assay type: functional
[28] = Toxicity in NOD/SCID mouse assessed as cytotoxicity in heart at 10 mg/kg, ip treated for 33 days by H&E staining analysis; assay type: organism-based; settings: in vivo, 792 h, time 33 day
[29] = tested on: MDA-MB-231; assay: Induction of autophagy in human MDA-MB-231 cells assessed as cleaved PARP at 1 to 5 uM incubated for 24 hrs in presence of chloroquine by Western blot analysis relative to control; assay type: functional, cell-based; settings: dose 1-5 µM
[30] = tested on: MDA-MB-231; assay: Induction of cell cycle arrest in human MDA-MB-231 cells assessed as accumulation of cells at S phase at 1 uM measured after 24 hrs by flow cytometry (reference value: 32.2%); assay type: functional
[31] = species: Homo sapiens; assay: Inhibition of PI3K (unknown origin) by ADP-Glo assay
[32] = tested on: MDA-MB-231; assay: Effect on mTOR expression in human MDA-MB-231 cells measured at 1 to 5 uM after 24 hrs by Western blot analysis; assay type: functional, cell-based; settings: dose 1-5 µM
[33] = tested on: MDA-MB-231; assay: Induction of autophagy in human MDA-MB-231 cells assessed as increase in ATG7 expression at 1 to 5 uM incubated for 24 hrs by Western blot analysis; assay type: functional, cell-based; settings: dose 1-5 µM
[34] = tested on: MDA-MB-231; assay: Antiinvasive activity against in human MDA-MB-231 cells assessed as reduction in beta-catenin expression measured upto 72 hrs by Western blot analysis; assay type: functional, cell-based; settings: dose 0.1-0.2 µM, time hrs <=72
[35] = tested on: MDA-MB-231; assay: Induction of apoptosis in human MDA-MB-231 cells assessed as late apoptotic cells at 1 uM measured after 24 hrs by Annexin V/Propidium iodide stain based Flow cytometry (reference value: 2.78%); assay type: functional

With `C=C1C(=O)C2=C[C@H]1CCC(=O)[C@]1(C)[C@H](O)CCC(C)(C)[C@H]1C[C@H]2O` the Activity [1] was “inactive”, the Activity [2] was 23.8% and the Activity [3] was 37.4%. The Activity [4] was “Dose-Dependent Effect”, the Activity [5] was “Active” and the “Selectivity Index” value [6] was >66.7. For the same compound, the Activity [7] was 27.9%, the Activity [8] was 81.1% and the Activity [9] was “Active”. For the same compound, the Activity [10] was “Active”, the IC50 [11] was 1960 nM and the Activity [12] was “Active”. For the same compound, the inhibition [13] was “Active”, the Activity [14] was “Active” and the Activity [15] was 57.9%. The Activity [16] was 35.5%, the Activity [17] was 35.1% and the Activity [18] was 34.5%. The inhibition in vivo at 10 mg/kg [19] was 44.8%, the Activity [20] was 43.1% and the Activity [21] was “Active”. The Activity [22] was 33.7%, the IC50 [23] was 71.6 nM and the Activity [24] was “Non-Toxic”. The Activity [25] was “Non-Toxic”, the Activity [26] was 27.6% and the Activity [27] was 16.1%. The Activity [28] was “Non-Toxic”, the Activity [29] was “inactive” and the Activity [30] was 37%. For the same compound, the inhibition [31] was “inactive”, the Activity [32] was “inactive” and the Activity [33] was “Active”. For the same compound, the Activity [34] was “Active” and the Activity [35] was 11.2%.
